From US20240316038A1, “APOL1 INHIBITORS AND METHODS OF USE” (Maze Therapeutics, Inc., priority 2021, published 2024)

Key:
APOL1 G2 [1] = target: T1, APOL1 G2 (Homo sapiens, UniProt O14791, DEL388-389); experiment: APOL1 calcium transport inhibition assay (GCaMP6f calcium influx, FLIPR) in HEK T-REx/GCaMP6f/APOL1 G2 K6.3 cells; format: cell-based; conditions: inhibition of APOL1-mediated calcium influx; geometric mean of at least 2 assay runs, † = single assay run (technical duplicate)
T1 construct: expressed in transfected cells; host or cells: HEK293 T-REx clonal lines: HEK T-REx/GCaMP6f/APOL1 G2 K6.3 in A1, HEK293/T-REx APOL1 G2/clone #2 in A2
T1 sequence (O14791 with tags, fused parts or gaps DEL388-389): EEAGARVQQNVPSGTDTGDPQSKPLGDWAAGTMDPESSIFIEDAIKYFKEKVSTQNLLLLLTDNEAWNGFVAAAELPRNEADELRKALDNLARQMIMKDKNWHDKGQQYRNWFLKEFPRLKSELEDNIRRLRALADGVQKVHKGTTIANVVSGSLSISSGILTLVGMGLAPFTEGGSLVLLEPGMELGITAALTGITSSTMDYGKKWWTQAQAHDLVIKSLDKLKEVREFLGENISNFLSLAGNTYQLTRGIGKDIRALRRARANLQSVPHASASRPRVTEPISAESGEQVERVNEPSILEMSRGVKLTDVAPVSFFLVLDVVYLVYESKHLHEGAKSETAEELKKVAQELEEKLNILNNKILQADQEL
Outline: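 HEK293 cells stably expressing GCaMP6f, APOL1 G2 induced 6 h with doxycycline (20 ng/mL added), then washed into Ca2+-free Tyrode's buffer pH 7.4. Compounds (8-point dose response) preincubated 10 min at room temperature, then Ca2+ injected to 5 mM final and influx read on FLIPR. AC50 reported as geometric mean of runs.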

APOL1 G2 [2] = target: T1, APOL1 G2; experiment: Rescue of HEK293 cell death caused by overexpression of APOL1 (CellTiter-Glo luminescence), HEK293/T-REx APOL1 G2/clone #2; format: cell-based; conditions: reversal of cell death caused by overexpression of APOL1; geometric mean of at least 2 assay runs, † = single assay run (technical duplicate)
Outline: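 HEK293/T-REx APOL1 G2 clone #2 cells, 5,000/well, induced with 6 ng/mL doxycycline and exposed to compound (8-point, 3-fold dilutions, 0.5% DMSO) for 17 h at 37 °C. Viability by CellTiter-Glo luminescence; EC50 for reversal of APOL1-induced death from a four-parameter logistic fit, geometric mean of ≥2 runs.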

Row | AC50 (APOL1 G2 [1]) | Structure (SMILES) | EC50 (APOL1 G2 [2])
1 | > 10000 nM | CC1CC(COc2ccc(S(C)(=O)=O)cc2)CN1CCc1cccc(C#N)c1 (single isomer, unassigned) [Compound 137, 3-{2-[(2S,4R or 2R,4S or 2R,4R or 2S,4S)-4-[(4-methanesulfon-ylphenoxy)meth-yl]-2-methyl-pyrrolidin-1-yl]-ethyl}benzo-nitrile] | 4620 nM
2 | 2500 nM | CC1CC(COc2ccc(S(C)(=O)=O)cc2)CN1CCc1cccc(C#N)c1 (single isomer, unassigned) [Compound 138, 3-{2-[(2R,4S or 2S,4R or 2R,4R or 2S,4S)-4-[(4-methanesulfon-ylphenoxy)meth-yl]-2-methyl-pyrrolidin-1-yl]-ethyl}benzo-nitrile] | 1970 nM
3 | 1230 nM | CC(CN1C[C@@H](COc2ccc(S(C)(=O)=O)cc2)C[C@H]1C)c1cc(Cl)cc(C#N)c1 (single isomer, unassigned) [Compound 142, 3-chloro-5-[(2R or 2S)-1-[(2R, 4S)-4-[(4-meth-anesulfonyl-phenoxy)meth-yl]-2-methyl-pyrrolidin-1-yl]-propan-2-yl]-benzonitrile] | 131 nM
4 | 1990 nM | C[C@H]1CN(CCc2cccc(Cl)c2)C[C@H]1COc1ccc(S(C)(=O)=O)cc1 (single isomer, unassigned) [Compound 152, (3S,4R or 3R, 4S)-1-[2-(3-chlorophenyl)-ethyl]-3-[(4-methanesulfon-ylphenoxy)meth-yl]-4-methyl-pyrrolidine] | 4720 nM
5 | 98 nM | C[C@H]1CN(CCc2cccc(Cl)c2)C[C@@H]1COc1ccc(S(C)(=O)=O)cc1 (single isomer, unassigned) [Compound 154, (3R,4R or 3S, 4S)-1-[2-(3-chlorophenyl)-ethyl]-3-[(4-methanesulfon-ylphenoxy)meth-yl]-4-methyl-pyrrolidine] | 167 nM
6 | 358 nM | CN=S(C)(=O)c1ccc(OC[C@H]2C[C@@H](C)N(CCc3cccc(C#N)c3)C2)cc1 (single isomer, unassigned) [Compound 159, 3-{2-[(2R,4S)-2-methyl-4-({4-[(S or R)methyl(methyli-mino)oxo-λ^6-sulfanyl]phenoxy}methyl)pyrrolidin-1-yl]ethyl}benzonitrile] | 24.9 nM
7 | 37.5 nM | CN=S(C)(=O)c1ccc(OC[C@@H]2CN(CCc3cccc(C#N)c3)C[C@H]2C)cc1 (single isomer, unassigned) [Compound 170, 3-{2-[(3S,4S)-3-methyl-4-({4-[(R or S)-methyl(methylimi-no)oxo-λ^6-sulfanyl]phenoxy}methyl)pyrrolidin-1-yl]ethyl}benzonitrile] | 76 nM
8 | 212 nM | CN=S(C)(=O)c1ccc(OC[C@@H]2CN(CCc3cccc(C#N)c3)C[C@H]2C)cc1 (single isomer, unassigned) [Compound 171, 3-{2-[(3S,4S)-3-methyl-4-({4-[(S or R)-methyl(methylimi-no)oxo-λ^6-sulfanyl]phenoxy}methyl)pyrrolidin-1-yl]ethyl}benzonitrile] | 146 nM
9 | 2860 nM | C[C@@H]1CN(CCc2cccc(Cl)c2)C[C@H]1COc1ccc(S(=O)(=O)CCCS(C)(=O)=O)cc1 (single isomer, unassigned) [Compound 177, (3S,4S or 3R,4R)-1-[2-(3-chlorophenyl)eth-yl]-3-{[4-(3-methanesulfonylpro-panesulfonyl)phe-noxy]methyl}-4-methylpyrrolidine] | 1830 nM
10 | 198 nM | CN=S(C)(=O)c1ccc(OC[C@@H]2CN(CCc3cc(Cl)cc(C#N)c3)CCN2)cc1 (single isomer, unassigned) [Compound 187, 3-chloro-5-{2-[(3S)-3-({4-[(S or R)-methyl(methyl-imino)oxo-λ^6-sulfanyl]pheno-xy}methyl)pipera-zin-1-yl]ethyl}benzo-nitrile] | 436 nM
11 | 511 nM | CN=S(C)(=O)c1ccc(OC[C@@H]2CN(CCc3cc(Cl)cc(C#N)c3)CCN2)cc1 (single isomer, unassigned) [Compound 188, 3-chloro-5-{2-[(3S)-3-({4-[(R or S)-methyl(methyl-imino)oxo-λ^6-sulfanyl]pheno-xy}methyl)piper-azin-1-yl]ethyl}benzo-nitrile] | 303 nM
12 | 817 nM | CC1CC(COc2ccc(S(C)(=O)=O)cc2)CN1CCc1cc(Cl)cc(C#N)c1 (single isomer, unassigned) [Compound 199, rac-cis or trans-3-chloro-5-{2-[4-[(4-methanesulfonylphenoxy)methyl]-2-methylpyrrolidin-1-yl]ethyl}benzonitrile] | 2440 nM
13 | 836 nM | CC1CC(COc2ccc(S(C)(=O)=O)cc2)CN1CCc1cc(Cl)cc(C#N)c1 (single isomer, unassigned) [Compound 200, 3-chloro-5-(2-((2S,4R or 2R,4S or 2R,4R or 2S,4S)-2-methyl-4-((4-(methylsulfonyl)phenoxy)methyl)pyrrolidin-1-yl)ethyl)benzonitrile] | 1990 nM

More lines, now with the values behind:

Row | Structure (SMILES) | AC50 (APOL1 G2 [1]) | EC50 (APOL1 G2 [2])
14 | CC1CC(COc2ccc(S(C)(=O)=O)cc2)CN1CCc1cccc(C#N)c1 (single isomer, unassigned) [Compound 136, rac-trans or cis-3-{2-[4-[(4-methanesulfon-ylphenoxy)meth-yl]-2-methyl-pyrrolidin-1-yl]-ethyl}benzo-nitrile] | 207 nM | 110 nM
15 | CC1CC(COc2ccc(S(C)(=O)=O)cc2)CN1CCc1cccc(C#N)c1 (single isomer, unassigned) [Compound 139, 3-{2-[(2S,4R or 2R,4S or 2S,4S or 2R,4R)-4-[(4-methanesulfon-ylphenoxy)meth-yl]-2-methyl-pyrrolidin-1-yl]-ethyl}benzo-nitrile] | > 10000 nM | 3230 nM
16 | CC1CC(COc2ccc(S(C)(=O)=O)cc2)CN1CCc1cccc(C#N)c1 (single isomer, unassigned) [Compound 140, 3-{2-[(2S,4R or 2R,4S or 2R,4R or 2S,4S)-4-[(4-methanesulfon-ylphenoxy)meth-yl]-2-methyl-pyrrolidin-1-yl]-ethyl}benzo-nitrile] | 107 nM | 45.9 nM
17 | CC(CN1C[C@@H](COc2ccc(S(C)(=O)=O)cc2)C[C@H]1C)c1cc(Cl)cc(C#N)c1 (single isomer, unassigned) [Compound 143, 3-chloro-5-[(2S or 2R)-1-[(2R, 4S)-4-[(4-meth-anesulfonyl-phenoxy)meth-yl]-2-methyl-pyrrolidin-1-yl]-propan-2-yl]-benzonitrile] | 3160 nM | 349 nM
18 | CC(CN1C[C@@H](COc2ccc(S(C)(=O)=O)cc2)[C@H](C)C1)c1cc(Cl)cc(C#N)c1 (single isomer, unassigned) [Compound 147, 3-chloro-5-[(2R or 2S)-1-[(3S, 4S)-3-[(4-meth-anesulfonylphen-oxy)methyl]-4-methylpyrroli-din-1-yl]propan-2-yl]benzonitrile] | 1110 nM | 618 nM
19 | CC(CN1C[C@@H](COc2ccc(S(C)(=O)=O)cc2)[C@H](C)C1)c1cc(Cl)cc(C#N)c1 (single isomer, unassigned) [Compound 148, 3-chloro-5-[(2S or 2R)-1-[(3S, 4S)-3-[(4-meth-anesulfonylphen-oxy)methyl]-4-methylpyrroli-din-1-yl]propan-2-yl]benzonitrile] | 615 nM | 80.8 nM
20 | C[C@@H]1CN(CCc2cccc(Cl)c2)C[C@@H]1COc1ccc(S(C)(=O)=O)cc1 (single isomer, unassigned) [Compound 151, (3R,4S or 3S, 4R)-1-[2-(3-chlorophenyl)-ethyl]-3-[(4-methanesulfon-ylphenoxy)meth-yl]-4-methyl-pyrrolidine] | 310 nM | 1340 nM
21 | C[C@@H]1CN(CCc2cccc(Cl)c2)C[C@H]1COc1ccc(S(C)(=O)=O)cc1 (single isomer, unassigned) [Compound 155, (35,4S or 3R, 4R)-1-[2-(3-chlorophenyl)-ethyl]-3-[(4-methanesulfon-ylphenoxy)meth-yl]-4-methyl-pyrrolidine] | 1980 nM | 2490 nM
22 | CN=S(C)(=O)c1ccc(OC[C@H]2C[C@@H](C)N(CCc3cccc(C#N)c3)C2)cc1 (single isomer, unassigned) [Compound 158, 3-{2-[(2R,4S)-2-methyl-4-({4-[(R or S)methyl(methyli-mino)oxo-λ^6-sulfanyl]phenoxy}methyl)pyrrolidin-1-yl]ethyl}benzonitrile] | 352 nM | 39 nM
23 | C[C@H]1CN(CCc2cccc(Cl)c2)C[C@@H]1COc1ccc(S(=O)(=O)CCCS(C)(=O)=O)cc1 (single isomer, unassigned) [Compound 176, (3R,4R or 3S,4S)-1-[2-(3-chlorophenyl)eth-yl]-3-{[4-(3-methanesulfonylpro-panesulfonyl)phe-noxy]methyl}-4-methylpyrrolidine] | 63 nM | < 47.2 nM
